Drawing on US6211364A, “Process for preparing indane-like compounds” (Eli Lilly and Company, priority 1999, dated 2001), this text covers Emax for 24 molecules.

Where only a bound is given, the exact number is not on record here.

This experiment deals with T1, human m4 receptors (Homo sapiens, UniProt P08173).
T1 construct: expressed in transfected cells; host or cells: CHO K1
T1 sequence (P08173 whole entry): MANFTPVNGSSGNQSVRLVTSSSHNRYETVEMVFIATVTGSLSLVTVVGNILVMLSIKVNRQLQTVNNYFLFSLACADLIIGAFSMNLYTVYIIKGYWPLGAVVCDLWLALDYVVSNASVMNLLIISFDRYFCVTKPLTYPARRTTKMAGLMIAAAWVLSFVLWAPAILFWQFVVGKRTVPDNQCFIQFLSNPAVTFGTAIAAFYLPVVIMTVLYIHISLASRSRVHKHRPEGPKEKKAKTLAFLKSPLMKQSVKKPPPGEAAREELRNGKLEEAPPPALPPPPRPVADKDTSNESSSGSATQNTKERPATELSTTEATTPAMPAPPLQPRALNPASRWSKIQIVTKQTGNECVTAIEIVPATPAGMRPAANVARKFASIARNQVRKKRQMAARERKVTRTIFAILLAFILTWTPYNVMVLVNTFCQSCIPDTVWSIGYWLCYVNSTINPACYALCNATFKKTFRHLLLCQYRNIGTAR
Description: M4 assay: cyclic AMP accumulation/production in pertussis toxin-treated CHO m4 cells (% maximum stimulation compared to oxotremorine-M). In kind it is cell-based. The conditions noted are these: read-out: % Maximum Stimulation Compared to Oxotremorine-M. The procedure: II. M4 muscarinic receptor […] assay:
Cyclic AMP Accumulation in Pertussis Toxin-Treated CHO m4 Cells.
CHO K1 cells transfected with human m4 receptors were grown to near confluency in T-150 flasks using Dulbecco's Modified Eagle Medium (DMEM) containing 10% fetal bovine serum. Cells were detached with 0.05% trypsin, 0.53 mM EDTA, and were suspended in medium containing 100 ng/ml pertussis toxin. Cells were plated at 30,000 cells per well into 96 well plates. Eighteen to twenty hours later the medium was removed and the cells were washed with serum-free medium. Attached cells were incubated at 37_C for one hour after addition of […] of serum free DMEM containing 1 mM 3-isobutyl-1-methylxanthine and 1 mM forskolin plus or minus drugs being tested. Incubations were terminated with […] per well of serum free DMEM containing 0.3%, triton-X-100. After stopping incubations the plates were allowed to sit for 20 minutes to extract cAMP and samples were then diluted 2.5-fold and were assayed using the scintillation proximity assay of Amersham (Arlington Heights, Ill.).
Representative results from the M4 assay are as follows:
Stimulation of cyclic AMP Production in CHO-m4 cells.
Consider `CN(C)C=Nc1ccc2c(c1)[C@@H](NC(=O)c1cccnc1Cl)[C@H](O)C2` (relative stereo) [Compound 73], for which the Emax came out at 11%.

In the case of `O=C(N[C@H]1c2cc(N=CN3CCCC3)ccc2C[C@@H]1O)c1cc(F)ccc1F` (relative stereo) [Compound 32], the Emax is less than 20%.

As for `CC(=Nc1ccc2c(c1)[C@@H](NC(=O)c1ccc(Cl)c(Cl)c1)[C@H](O)C2)N(C)C` (relative stereo) [Compound 76], the Emax worked out at 130%. Consider `CCc1ccc(C(=O)N[C@@H]2c3cc(N=CN(C)C)ccc3C[C@H]2O)cc1` (relative stereo) [Compound 67], for which the Emax turned out to be 7%. For the molecule `O=C(N[C@H]1c2cc(N=CN3CCCC3)ccc2C[C@@H]1O)c1cc(F)cc(F)c1` (relative stereo) [Compound 23], the Emax was less than 20%.

On to `O=C(N[C@H]1c2cc(N=CN3CCCC3)ccc2C[C@@H]1O)c1cc(F)c(F)c(F)c1` (relative stereo) [Compound 39], for which the Emax came out at 43%. In the case of `O=C(N[C@H]1c2cc(N=CN3CCCC3)ccc2C[C@@H]1O)c1ccc2ccccc2c1` (relative stereo) [Compound 17], the Emax is 56%. As to `COc1cccc(C(=O)N[C@H]2c3cc(N=CN4CCCC4)ccc3C[C@@H]2O)c1` (relative stereo) [Compound 34], the Emax came out at 45%. On to `O=C(N[C@H]1c2cc(N=CN3CCCC3)ccc2C[C@@H]1O)c1cccc([N+](=O)[O-])c1` (relative stereo) [Compound 25], for which the Emax stood at 43%.

On to `O=C(N[C@H]1c2cc(N=CN3CCCC3)ccc2C[C@@H]1O)c1cccs1` (relative stereo) [Compound 21], for which the Emax came out at 23%.

In the case of `CN(C)C=Nc1ccc2c(c1)C(NS(=O)(=O)c1ccc(Cl)c(Cl)c1)C(O)C2` (stereo not drawn) [Compound 72], the Emax came out at 4%. For the molecule `O=C(N[C@@H]1c2cc(N=CN3CCCC3)ccc2C[C@H]1O)c1c(Cl)cccc1Cl` (relative stereo) [Compound 46], the Emax amounted to 154%. Take `O=C(N[C@H]1c2cc(N=CN3CCCC3)ccc2C[C@@H]1O)c1ccc(C(F)(F)F)cc1` (relative stereo) [Compound 18]: the Emax was 61%. As for `N#Cc1cccc(C(=O)N[C@H]2c3cc(N=CN4CCCC4)ccc3C[C@@H]2O)c1` (relative stereo) [Compound 38], the figure is less than 20%; as for `O=C(N[C@@H]1c2cc(N=CN3CCCC3)ccc2C[C@H]1O)c1cc(F)c(F)c(F)c1F` (relative stereo) [Compound 40], 96%. Under `O=C(N[C@H]1c2cc(N=CN3CCCC3)ccc2C[C@@H]1O)c1cccc(Cl)c1Cl` (relative stereo) [Compound 31] stands 45%; under `CN(C)C=Nc1ccc2c(c1)[C@@H](NC(=O)c1ccc(C(F)(F)F)cc1)[C@H](O)C2` (relative stereo) [Compound 75], 6%; under `O=C(N[C@@H]1c2cc(N=CN3CCCCC3)ccc2C[C@H]1O)c1ccc(Cl)c(Cl)c1` (relative stereo) [Compound 77], 214%.

Turning to `O=C(N[C@H]1c2cc(N=CN3CCCC3)ccc2C[C@@H]1O)C1CCCCC1` (relative stereo) [Compound 11], the Emax came to 34%.

Turning to `CN(C)C=Nc1ccc2c(c1)[C@@H](NC(=O)c1ccccc1)[C@H](O)C2` (relative stereo) [Compound 57], the Emax worked out at 5%. As for `O=C(N[C@@H]1c2cc(N=CN3CCCC3)ccc2C[C@H]1O)c1c(Cl)cc(Cl)cc1Cl` (relative stereo) [Compound 47], the figure is less than 20%.

For the molecule `O=C(N[C@H]1c2cc(N=CN3CCCC3)ccc2C[C@@H]1O)c1cccc(F)c1F` (relative stereo) [Compound 24], the Emax stood at 22%. As for `O=C(CSc1ccccc1)N[C@H]1c2cc(N=CN3CCCC3)ccc2C[C@@H]1O` (relative stereo) [Compound 28], the Emax was less than 20%. In the case of `O=C(N[C@@H]1c2cc(N=CN3CCCC3)ccc2C[C@H]1O)C1CCC1` (relative stereo) [Compound 41], the Emax was less than 20%.
